Tests used:
Experiment in all cases: Live cell target engagement (NanoBRET) in HEK293 cells
Assay type in all cases: cell-based
[1] = target: AKT1 E17K (Homo sapiens (Human), UniProt P31749, E17K); conditions: for IC50: HEK293, 2 hours at 37° C.
[2] = target: AKT1 WT (Homo sapiens (Human), UniProt P31749); conditions: HEK293, 2 hours at 37° C.
[3] = target: AKT2 (Homo sapiens (Human), UniProt P31751); conditions: HEK293, 2 hours at 37° C.
Sequence of AKT2 (P31751 whole entry): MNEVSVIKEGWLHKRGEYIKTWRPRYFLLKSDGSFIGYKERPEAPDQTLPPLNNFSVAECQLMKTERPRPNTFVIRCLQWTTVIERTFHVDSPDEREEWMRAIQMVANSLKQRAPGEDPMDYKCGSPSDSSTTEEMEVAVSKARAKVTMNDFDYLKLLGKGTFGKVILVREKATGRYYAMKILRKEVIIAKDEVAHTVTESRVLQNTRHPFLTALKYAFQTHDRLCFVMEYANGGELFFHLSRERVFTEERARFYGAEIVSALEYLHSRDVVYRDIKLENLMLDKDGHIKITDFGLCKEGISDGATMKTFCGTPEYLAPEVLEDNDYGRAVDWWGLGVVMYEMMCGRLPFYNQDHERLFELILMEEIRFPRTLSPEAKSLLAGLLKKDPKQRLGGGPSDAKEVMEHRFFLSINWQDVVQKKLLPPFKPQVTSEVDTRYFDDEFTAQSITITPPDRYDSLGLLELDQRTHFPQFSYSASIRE

Sequence of AKT1 WT (P31749 whole entry): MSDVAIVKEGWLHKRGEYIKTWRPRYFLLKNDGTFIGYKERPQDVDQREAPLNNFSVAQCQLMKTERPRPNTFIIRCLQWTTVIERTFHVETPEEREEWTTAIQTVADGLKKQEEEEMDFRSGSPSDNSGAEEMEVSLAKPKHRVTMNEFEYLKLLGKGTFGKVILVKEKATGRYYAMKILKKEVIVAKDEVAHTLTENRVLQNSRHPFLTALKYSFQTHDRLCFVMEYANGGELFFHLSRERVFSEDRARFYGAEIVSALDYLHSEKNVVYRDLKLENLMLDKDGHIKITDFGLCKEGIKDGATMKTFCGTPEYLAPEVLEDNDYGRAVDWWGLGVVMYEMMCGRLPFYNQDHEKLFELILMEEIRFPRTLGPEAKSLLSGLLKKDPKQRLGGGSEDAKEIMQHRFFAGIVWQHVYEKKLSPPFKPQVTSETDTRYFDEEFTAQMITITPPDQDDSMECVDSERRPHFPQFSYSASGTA
Sequence of AKT1 E17K (P31749 whole entry E17K): as the sequence (P31749 whole entry) above, with E17K counted along it

| Structure (SMILES) | AKT1 E17K IC50: Selectivity vs AKT1 WT [1] | AKT1 E17K IC50: Selectivity vs AKT2 [1] | IC50 [1] | IC50 [2] | IC50 [3] |
| --- | --- | --- | --- | --- | --- |
| Nc1ncccc1-c1nc2ccc(C3CC3)nc2n1-c1ccc(CNC(=O)C(F)c2ccc(C=O)c(O)c2)cc1 (centres unmarked) [Compound 26, N-({4-[2-(2-aminopyridin-3-yl)-5-cyclopropylimidazo[4,5-b]pyridin-3-yl]phenyl}methyl)-2-fluoro-2-(4-formyl-3-hydroxyphenyl)acetamide] | 2.4 | 190 | < 100 nM | < 100 nM | > 500 nM |
| Nc1ncccc1-c1nc2ccc(-c3ccccc3)nc2n1-c1ccc(NC(=O)Cc2ccc(O)c(C=O)c2)cc1 [Compound 28, N-{4-[2-(2-aminopyridin-3-yl)-5-phenylimidazo[4,5-b]pyridin-3-yl]phenyl}-2-(3-formyl-4-hydroxyphenyl)acetamide] | 1.3 | 17 | < 100 nM | < 100 nM | 100 to 500 nM |
| Nc1ncccc1-c1nc2ccc(-c3ccccc3)nc2n1-c1ccc(C(=O)NCc2ccc(O)c(C=O)c2)cc1 [Compound 29, 4-(2-(2-aminopyridin-3-yl)-5-phenyl-3H-imidazo[4,5-b]pyridin-3-yl)-N-(3-formyl-4-hydroxybenzyl)benzamide] | 3 | 23 | < 100 nM | < 100 nM | 100 to 500 nM |
| Nc1ncccc1-c1nc2ccc(-c3ccccc3)nc2n1-c1ccc(C(CO)NC(=O)Cc2ccc(C=O)c(O)c2F)cc1 (centres unmarked) [Compound 30, N-(1-(4-(2-(2-aminopyridin-3-yl)-5-phenyl-3H-imidazo[4,5-b]pyridin-3-yl)phenyl)-2-hydroxyethyl)-2-(2-fluoro-4-formyl-3-hydroxyphenyl)acetamide] | 1.9 | 6.2 | < 100 nM | 100 to 500 nM | > 500 nM |
| Nc1ncccc1-c1nc2ccc(-c3ccccc3)nc2n1-c1ccc(CCNCCc2ccc(C=O)c(O)c2)cc1 [Compound 36, 4-(2-((4-(2-(2-aminopyridin-3-yl)-5-phenyl-3H-imidazo[4,5-b]pyridin-3-yl)phenethyl)amino)ethyl)-2-hydroxybenzaldehyde] | 2 | 9.2 | < 100 nM | < 100 nM | 100 to 500 nM |
| CC(C(=O)NCc1ccc(-n2c(-c3cccnc3N)nc3ccc(-c4ccccc4)nc32)cc1)c1ccc(C=O)c(O)c1 (centres unmarked) [Compound 37] | 11 | 180 | < 100 nM | < 100 nM | > 500 nM |
| Nc1ncccc1-c1nc2ccc(-c3ccccc3)nc2n1-c1ccc(N2CC(NCc3ccc(C=O)c(O)c3)C2)cc1 [Compound 38, 4-(((1-(4-(2-(2-aminopyridin-3-yl)-5-phenyl-3H-imidazo[4,5-b]pyridin-3-yl)phenyl)azetidin-3-yl)amino)methyl)-2-hydroxybenzaldehyde] | 1.5 | 15 | 100 to 500 nM | 100 to 500 nM | > 500 nM |
| CN(CCc1ccc(-n2c(-c3cccnc3N)nc3ccc(-c4ccccc4)nc32)cc1)Cc1ccc(C=O)c(O)c1 [Compound 39, 4-{[(2-{4-[2-(2-aminopyridin-3-yl)-5-phenylimidazo[4,5-b]pyridin-3-yl]phenyl}ethyl)(methyl)amino]methyl}-2-hydroxybenzaldehyde] | 1.5 | 5.2 | < 100 nM | 100 to 500 nM | 100 to 500 nM |
| Nc1ncccc1-c1nc2ccc(-c3ccccc3)nc2n1-c1ccc(CCNCc2ccc(C=O)c(O)c2F)cc1 [Compound 40, 4-(((4-(2-(2-aminopyridin-3-yl)-5-phenyl-3H-imidazo[4,5-b]pyridin-3-yl)phenethyl)amino)methyl)-3-fluoro-2-hydroxybenzaldehyde] | 2.2 | 6.7 | < 100 nM | < 100 nM | 100 to 500 nM |
| CC(C)(C)c1cc(C(=O)NCc2ccc(-n3c(-c4cccnc4N)nc4ccc(-c5ccccc5)nc43)cc2)cc(C=O)c1O [Compound 41, N-(4-(2-(2-aminopyridin-3-yl)-5-phenyl-3H-imidazo[4,5-b]pyridin-3-yl)benzyl)-3-(tert-butyl)-5-formyl-4-hydroxybenzamide] | 0.24 | 0.77 | > 500 nM | > 500 nM | > 500 nM |
| Nc1ncccc1-c1nc2ccc(-c3cccc(N4CCC(N5CCCC5=O)CC4)c3F)nc2n1-c1ccc(CNC(=O)Cc2ccc(C=O)c(O)c2)cc1 [Compound 42, N-({4-[2-(2-aminopyridin-3-yl)-5-{2-fluoro-3-[4-(2-oxopyrrolidin-1-yl)piperidin-1-yl]phenyl}imidazo[4,5-b]pyridin-3-yl]phenyl}methyl)-2-(4-formyl-3-hydroxyphenyl)acetamide] | 1.7 | 4.8 | < 100 nM | < 100 nM | < 100 nM |

Next, values leading:

| AKT1 E17K IC50: Selectivity vs AKT1 WT [1] | AKT1 E17K IC50: Selectivity vs AKT2 [1] | IC50 [1] | IC50 [2] | IC50 [3] | Structure (SMILES) |
| --- | --- | --- | --- | --- | --- |
| 4.3 | 210 | < 100 nM | < 100 nM | > 500 nM | Cc1ccc2nc(-c3cccnc3N)n(-c3ccc(CNC(=O)Cc4ccc(C=O)c(O)c4)cc3)c2n1 [Compound 24, N-({4-[2-(2-aminopyridin-3-yl)-5-methylimidazo[4,5-b]pyridin-3-yl]phenyl}methyl)-2-(4-formyl-3-hydroxyphenyl)acetamide] |
| 4.3 | 120 | < 100 nM | < 100 nM | > 500 nM | Nc1ncccc1-c1nc2ccc(NC3CC3)nc2n1-c1ccc(CNC(=O)Cc2ccc(C=O)c(O)c2)cc1 [Compound 25, N-({4-[2-(2-aminopyridin-3-yl)-5-(cyclopropylamino)imidazo[4,5-b]pyridin-3-yl]phenyl}methyl)-2-(4-formyl-3-hydroxyphenyl)acetamide] |
| 3.8 | 110 | < 100 nM | 100 to 500 nM | > 500 nM | Nc1ncccc1-c1nc2ccc(C3CC3)nc2n1-c1ccc(CNC(=O)c2ccc(O)c(C=O)c2)cc1 [Compound 27, N-({4-[2-(2-aminopyridin-3-yl)-5-cyclopropylimidazo[4,5-b]pyridin-3-yl]phenyl}methyl)-3-formyl-4-hydroxybenzamide] |
| 9 | 110 | < 100 nM | 100 to 500 nM | > 500 nM | Cn1cc(-c2ccc3nc(-c4cccnc4N)n(-c4ccc(CNC(=O)Cc5ccc(C=O)c(O)c5)cc4)c3n2)cn1 [Compound 32, N-({4-[2-(2-aminopyridin-3-yl)-5-(1-methylpyrazol-4-yl)imidazo[4,5-b]pyridin-3-yl]phenyl}methyl)-2-(4-formyl-3-hydroxyphenyl)acetamide] |
| 23 | 400 | < 100 nM | 100 to 500 nM | > 500 nM | COc1ccc2nc(-c3cccnc3N)n(-c3ccc(CNC(=O)Cc4ccc(C=O)c(O)c4)cc3)c2n1 [Compound 33, N-(4-(2-(2-aminopyridin-3-yl)-5-methoxy-3H-imidazo[4,5-b]pyridin-3-yl)benzyl)-2-(4-formyl-3-hydroxyphenyl)acetamide] |
| 10 | 40 | < 100 nM | 100 to 500 nM | > 500 nM | Nc1ncccc1-c1nc2ccc(-c3ccnc(N4CCOCC4)c3)nc2n1-c1ccc(CNC(=O)Cc2ccc(C=O)c(O)c2)cc1 [Compound 34, N-({4-[2-(2-aminopyridin-3-yl)-5-[2-(morpholin-4-yl)pyridin-4-yl]imidazo[4,5-b]pyridin-3-yl]phenyl}methyl)-2-(4-formyl-3-hydroxyphenyl)acetamide] |
| 3.4 | 140 | < 100 nM | < 100 nM | 100 to 500 nM | Nc1ncccc1-c1nc2ccc(-n3cccn3)nc2n1-c1ccc(CNC(=O)Cc2ccc(C=O)c(O)c2)cc1 [Compound 35, N-({4-[2-(2-aminopyridin-3-yl)-5-(pyrazol-1-yl)imidazo[4,5-b]pyridin-3-yl]phenyl}methyl)-2-(4-formyl-3-hydroxyphenyl)acetamide] |
| 4.5 | >150 | < 100 nM | 100 to 500 nM | > 500 nM | CN(C)C(=O)Nc1cc(CC(=O)NCc2ccc(-n3c(-c4cccnc4N)nc4cccnc43)cc2)ccc1C=O [Compound 43, N-(4-(2-(2-aminopyridin-3-yl)-3H-imidazo[4,5-b]pyridin-3-yl)benzyl)-2-(3-(3,3-dimethylureido)-4-formylphenyl)acetamide] |
| 3.6 | 34 | 100 to 500 nM | > 500 nM | > 500 nM | Cn1cc(C(=O)Nc2cc(CC(=O)NCc3ccc(-n4c(-c5cccnc5N)nc5cccnc54)cc3)ccc2C=O)cn1 [Compound 44, N-(5-(2-((4-(2-(2-aminopyridin-3-yl)-3H-imidazo[4,5-b]pyridin-3-yl)benzyl)amino)-2-oxoethyl)-2-formylphenyl)-1-methyl-1H-pyrazole-4-carboxamide] |
| 0.47 | 2 | 100 to 500 nM | – | 100 to 500 nM | Nc1ncccc1-c1nc2ccc(-c3ccccc3)nc2n1-c1ccc(CNC(=O)CCc2ccc(C=O)c(O)c2)cc1 [Compound 117] |
| 0.52 | – | < 100 nM | < 100 nM | – | Nc1ncccc1-c1nc2ccc(-c3ccccc3)nc2n1-c1ccc(CNC(=O)c2ccc(C=O)c(O)c2)cc1 [Compound 138, N-(4-(2-(2-aminopyridin-3-yl)-5-phenyl-3H-imidazo[4,5-b]pyridin-3-yl)benzyl)-4-formyl-3-hydroxybenzamide] |
